From US20250281633A1, “HER2 TARGETING FC ANTIGEN BINDING FRAGMENT-DRUG CONJUGATES” (MERCK PATENT GMBH, priority 2021, published 2025) come the findings set out here.

One test deals with FcRn. Description: KD [nM]. From the text:
Errors are standard errors from fitting using FortéBio data analysis software 9.1. Fitting quality is characterized by R^2. Data is derived from BLI sensorgrams represented in FIG. 22 and FIG. 23.

Test [1] has as its system HER2 positive (SKBR-3, HCC-1954) and HER2 negative (MDA-MB-468) cells. The test can be described thus: Cellular binding analysis by flow cytometry. It is filed as cell-based, human. To be noted: 100 nM, 60 min, 4° C. On the procedure:
Relative order of fluorescence intensity of distinct variants on HER2 positive cells correspond to their HER2 binding affinity. Cells were incubated with 100 nM of Fcab/antibody for 60 min at 4° C., washed twice with PBS-1% BSA, incubated for 30 min with 500 nM of AF488-labeled detection antibody (Jackson ImmunoResearch) at 4° C. in darkness, washed twice with PBS-1% BSA, and finally fluorescence intensity was measured applying an Attune NxT flow cytometer (Invitrogen™).

On to “huFc: native human Fc-based negative control [listing 1 of 2 here]”, for which, at FcRn, binding was put at a Kd of 524 ± 13 nM. Consider “huFc: native human Fc-based negative control [listing 2 of 2 here]”, for which, in test [1], the “cellular binding to HCC-1954 cells (in words)” value is listed as “binds only slightly”.
